Data from patent US20080171117A1, “METHODS FOR REDUCING MICROBIAL CONTAMINATION IN SEAFOOD PROCESSING” (Tasker Products Corp., priority 2004, published 2008).

How the values were obtained:
[1] = tested on: Coliform; assay: Treated salmon under refrigeration: Coliform; settings: Treated With O3
[2] = tested on: SPC; assay: Treated salmon under refrigeration: SPC; settings: Treated With O3

O=[O+][O-] [O3, Ozone]
Coliform ([1]; day 3): 0.5 | Coliform ([1]; day 6): 0.5 | Coliform ([1]; day 8): 0.5 | Coliform ([1]; day 9): 0.5 | Coliform ([1]; day 10): 0.5 | Log SPC ([2]; day 3): 0 | SPC ([2]; day 3): 1 | Log SPC ([2]; day 6): 0 | SPC ([2]; day 6): 1 | Log SPC ([2]; day 8): 1.643 | SPC ([2]; day 8): 44 | Log SPC ([2]; day 9): 0 | SPC ([2]; day 9): 1 | Log SPC ([2]; day 10): 1.146 | SPC ([2]; day 10): 14
